We go through seven compounds from patent US11597708B2, “Inhibitors of heat shock factors and uses thereof” (HSF Pharmaceuticals SA, priority 2016, dated 2023).

Molecules are shown by their SMILES.

One assay deals with T1, HSE DNA-binding activity (Homo sapiens, UniProt Q00613).
T1 construct: functionally linked to an hsp70b promoter and therefore controlled by endogenous HSF1; endogenous in cells; host or cells: HeLa cells / HeLa-derived cell line Z74
T1 sequence (Q00613 1-529): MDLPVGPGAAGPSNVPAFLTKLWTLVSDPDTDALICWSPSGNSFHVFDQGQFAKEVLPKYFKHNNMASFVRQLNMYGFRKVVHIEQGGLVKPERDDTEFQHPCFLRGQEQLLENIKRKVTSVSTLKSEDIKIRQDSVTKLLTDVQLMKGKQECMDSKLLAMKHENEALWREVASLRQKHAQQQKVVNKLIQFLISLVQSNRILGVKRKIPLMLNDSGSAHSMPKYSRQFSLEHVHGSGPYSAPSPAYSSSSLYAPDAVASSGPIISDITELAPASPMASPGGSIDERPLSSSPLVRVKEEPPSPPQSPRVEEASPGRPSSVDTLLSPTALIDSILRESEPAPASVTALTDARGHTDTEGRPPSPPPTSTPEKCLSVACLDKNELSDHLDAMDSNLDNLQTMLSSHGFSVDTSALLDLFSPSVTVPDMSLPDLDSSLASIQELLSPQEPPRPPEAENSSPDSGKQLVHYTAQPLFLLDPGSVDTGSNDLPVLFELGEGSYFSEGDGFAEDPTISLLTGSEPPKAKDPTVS
The assay is described as follows: EMSA using extracts of heat-treated HeLa cells, in the presence of IHSF. The conditions noted are these: extracts of HeLa cells heat-treated at 43° C. for 30 min; concentrations as high as about 0.5 mM. It counts as biochemical. The protocol: Electrophoretic mobility shift assays (EMSA) using a radiolabeled HSE DNA probe were carried out to assess HSF1 DNA-binding activity in extracts of heat-treated (43° C./30 min) HeLa cells that had been exposed to different concentrations of compounds 058 or 115 (FIG. 3A, top panels). […] HSF1 degradation correlated well with the observed decrease in DNA-binding activity. Therefore, HSF1 degradation provides a sufficient explanation for the reduced HSE DNA-binding activity in cells treated with IHSF 058. […] EMSA were also carried out using extracts of HeLa cells that had been heat-treated at 43° C. for 30 min.
(A gel shift assay detects complexes by their altered migration in electrophoresis.)

Another assay has as its target T2, HSF1 (Homo sapiens, UniProt Q00613).
T2 construct: functionally linked to an hsp70b promoter and therefore controlled by endogenous HSF1; endogenous in cells; host or cells: HeLa cells / HeLa-derived cell line Z74
T2 sequence (Q00613 1-529): T1 sequence (Q00613 1-529)
The assay is described as follows: Z74 cell-based reporter assay: heat-induced RLuc expression controlled by endogenous HSF1. As to conditions: Z74 cells; for IC50: inhibition of HSF1 activity [RLuc]; for inhibition at 12.5 µM: 12.5 μM IHSF, negative values marked *: compound enhanced rLuc activity, read-out: Inhibition of HSF1 activity at 12.5 μM IHSF [RLuc] (%); for inhibition at 25 µM: 25 μM IHSF, 2 h exposure, 43° C. 30 min, 6 h at 37° C., read-out: Inhibition of HSF1 activity at 25 μM IHSF [RLuc] (%). The text has this: For screening this sublibrary, a cell-based assay was developed. We opted for a cell-based assay, because a cell-free assay would have had to be a DNA-binding assay. Such an assay would have limited discovery to molecules capable of interfering with the DNA-binding function of HSF1. This was thought to be too narrow a focus, considering that three of the four cavities identified in the HSF1 DNA-binding domain are not near the DNA interaction region. A straightforward cell-based assay, in which a HSF1-responsive gene would be assayed, was considered likely to be over-inclusive. Compounds would be scored as hits that inhibit any factor that is involved in HSF1 activation or prevents HSF1 deactivation. These factors include protein kinases, activators of protein phosphatases, factors affecting HSF1 mRNA stability, HSP90, HDAC6, etc. For developing a more discriminating cell-based assay, advantage was taken of the modular nature of HSF1. […] The cell-based assay developed (see below for the particular format employed) compared transactivation by wild type HSF1 and chimeric HSF1 in cells exposed to an HSF1-activating heat treatment in the presence of a sublibrary compound. A compound was scored as a hit, if it inhibited the activity of wild type HSF1 but not of chimeric HSF1.
The cell-based assay made use of HeLa-derived cell line Z74 that stably contains a gene for chimeric transcription factor LexA-(human) HSF1 under the control of a CMV early promoter, a firefly luciferase (flue) gene driven by a promoter responsive to the latter chimeric transcription factor and a Renilla luciferase (rluc) gene functionally linked to an hsp70b promoter and therefore controlled by endogenous HSF1 (FIG. 1A). As is shown in FIGS. 1B & C, the reporter genes responded similarly to heat dose, i.e., their activation depended on both duration of heat exposure and temperature of the exposure. […] Depletion of HSF1 (and LexA-HSF1) by siRNA supported the notion that this stress regulation is mediated by HSF1 (and LexA-HSF1). Therefore, the Z74 line was well suited for use in a screening assay aimed at discovering molecules that inhibit heat-induced HSF1 activity through interaction with the transcription factor's DNA-binding domain.
The compounds of the afore-mentioned biased sublibrary were screened in cell line Z74 at 12.5 and 25 μM concentrations. Typically, Z74 cultures in 96-well plates were exposed to compound or vehicle for 2 h, heat-treated at 43.0° C. for 30 min, and incubated further for 6 h at 37° C. to allow for accumulation of the luciferases. RLuc and FLuc activities were determined, typically using the Dual-Glo® Luciferase Assay System (Promega Corp., Madison, Wis.), and reading luciferase light counts in a Wallac Microbeta Trilux-1450 Luminometer (PerkinElmer, Waltham, Mass.). IHSF 001 was one of two library compounds that inhibited RLuc expression but not FLuc expression in heat-treated Z74 cells (Table 1; FIG. 2A). Therefore, IHSF 001 is an inhibitor of HSF1 function that specifically acts through the HSF1 DNA-binding domain. […] A corroborating experiment utilized a cell line containing an hsp70b promoter-driven fluc gene. […] IHSF 001 is (E)-ethyl 4-oxo-4-(thiazol-2-ylamino)but-2-enoate. The compound can be obtained from commercial sources (e.g., AKE-PB-90340538, Akos).
A general note: In a reporter assay the amount or activity of a reporter protein is the signal.

`CCOC(=O)/C=C/C(=O)Nc1nc(C)c(C)s1` [IHSF 052, (E)-3-(4,5-Dimethyl-thiazol-2-ylcarbamoyl)-acrylic acid ethyl ester]: the “HSE DNA-binding activity (EMSA) in the presence of IHSF” value (“HSE DNA-binding activity (EMSA)” for short) at HSE DNA-binding activity was “no reduction”. In addition, at HSF1, the IC50 worked out at 7.4 µM, the inhibition at 12.5 µM turned out to be 57% and the inhibition at 25 µM was 71%.
Regarding `CCOC(=O)/C=C/C(=O)Nc1ccnc(-c2ccccc2)c1` [IHSF 049, (E)-3-(2-Phenyl-pyridin-4-ylcarbamoyl)-acrylic acid ethyl ester], at HSE DNA-binding activity, the “HSE DNA-binding activity (EMSA)” value is recorded as “no reduction”. For the same compound, on HSF1, the inhibition at 12.5 µM came out at 53% and the inhibition at 25 µM was determined as 85%.
The corresponding values for `CCOC(=O)/C=C/C(=O)Nc1ncc(C#N)s1` [IHSF 057, (E)-3-(5-Cyano-thiazol-2-ylcarbamoyl)-acrylic acid ethyl ester] are “no reduction”, 40% and 65%.
Consider `CCOC(=O)/C=C/C(=O)Nc1ncc(-c2ccccc2C)s1` [IHSF 059, (E)-3-(5-o-Tolyl-thiazol-2-ylcarbamoyl)-acrylic acid ethyl ester], for which the “HSE DNA-binding activity (EMSA)” value at HSE DNA-binding activity is on record as “no reduction”. At HSF1, it took 14.7 µM to reach half-maximal inhibition (IC50), the inhibition at 12.5 µM came to 45% and the inhibition at 25 µM came out at 72%.
For `CCOC(=O)/C=C/C(=O)Nc1nc(C)c(-c2ccccc2)s1` [IHSF 051, (E)-3-(4-Methyl-5-phenyl-thiazol-2-ylcarbamoyl)-acrylic acid ethyl ester] the same measures were “no reduction”, 9.6 µM, 72% and 92%.
Consider `CCOC(=O)/C=C/C(=O)Nc1ccnc2ccccc12` [IHSF 050, (E)-3-(Quinolin-4-ylcarbamoyl)-acrylic acid ethyl ester], for which the “HSE DNA-binding activity (EMSA)” value on HSE DNA-binding activity is “no reduction”. On HSF1, the inhibition at 12.5 µM stood at 40% and the inhibition at 25 µM was 61%.
`CCOC(=O)/C=C/C(=O)Nc1nc(C)cs1` [IHSF 011, (E)-3-(4-Methyl-thiazol-2-ylcarbamoyl)-acrylic acid ethyl ester]: the “HSE DNA-binding activity (EMSA)” value at HSE DNA-binding activity is “no reduction”. Further, on HSF1, 7 µM corresponded to half-maximal inhibition (IC50), the inhibition at 12.5 µM worked out at 69% and the inhibition at 25 µM came out at 83%.

Broadly, the IC50 is the point on the concentration scale where inhibition reaches its midpoint. High values mean lower potency, low ones higher potency. Broadly, the inhibition is the percentage by which the read-out fell short of the control.
